Experiment [1] concerns the target Voltage-dependent T-type calcium channel subunit alpha-1H (Homo sapiens, UniProt O95180). It counts as functional.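 Further: channel activity triggered by adding a high calcium stimulation buffer.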
For another experiment, the target named is Cytochrome P450 3A4 (Homo sapiens, UniProt P08684).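 Further: CYP3A4 tested as one member of a cytochrome P450 panel screen.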
Another experiment has as its target Large T antigen (Simian virus 40, UniProt P03070). It counts as functional, Betapolyomavirus macacae.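 Further: Confirmatory-stage PubChem screen for compounds that inhibit SV40 T antigen.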
In experiment [2] the target is DNA dC->dU-editing enzyme APOBEC-3A (Homo sapiens, UniProt P31941). Kind of experiment: APOBEC3A DNA deaminase inhibitors, dose response, biochemical (AID 504722). The format is functional.
Experiment [3] has as its target DNA dC->dU-editing enzyme APOBEC-3G (Homo sapiens, UniProt Q9HC16). Kind of experiment: Dose Response confirmation of small molecule APOBEC3G DNA Deaminase Inhibitors via a fluorescence-based single-stranded DNA deaminase assay. [Related pubchem assays (depositor defined):AID493012, AID493028]. It counts as functional.
Experiment [4] deals with Intestinal-type alkaline phosphatase (Homo sapiens, UniProt P09923). Kind of experiment: Dose Response confirmation of uHTS hits from a small molecule inhibitors of human intestinal alkaline phosphatase via a luminescent assay. [Related pubchem assays (depositor defined):AID2544, AID2574]. The format is functional.
Experiment [5] is described as follows: A Cell Based Secondary Assay To Explore Cytotoxicity of Compounds that Sensitize Mycobacterium Tuberculosis to Beta-Lactam Antibiotics. The format is functional.
Experiment [6] deals with BJ. Kind of experiment: cytotoxicity toward BJ-TERT fibroblasts, dose response, cell-based, RAS-independent, luminescence (AID 1933). To be noted: Homo sapiens. The format is functional.
The test system of experiment [7] is BJ. Kind of experiment: cells. The format is functional, cell-based. As to conditions: Homo sapiens.
The nature of experiment [8]: inhibitors of intracellular T. cruzi replication, confirmation, NIH3T3 host cells, beta-gal luminescence (AID 2044).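 Further: intracellular parasites grown in NIH/3T3 mouse fibroblasts as host cells; luminescent beta-galactosidase reporter signal from transgenic T. cruzi replicating inside host cells; inhibitors lower the luminescence signal.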 It counts as functional, cell-based.
Experiment [9] in a line: cytotoxicity toward NIH3T3 fibroblasts, dose response, counter-screen, cell-based, ATP luminescence, mouse fibroblasts (AID 2010).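 Further: cells exposed to compound for about 90 hours before reading.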 It counts as functional. In general terms: Counterscreens check selectivity or assay interference.
Experiment [10] has as its system BJ. Kind of experiment: cytotoxicity toward BJ-TERT-LT-ST fibroblasts, dose response, cell-based, RAS-independent, luminescence (AID 1935).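 Further: BJ fibroblasts immortalized with TERT plus LT and ST oncogenes.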 The format is functional. As to conditions: Homo sapiens.
A short description of experiment [11]: cytotoxicity toward DRD oncogenic fibroblasts, dose response, cell-based, non-viral oncogenic, luminescence (AID 1934). The format is functional. To be noted: Homo sapiens.
Experiment [12] can be described thus: cytotoxicity in HEK-293T cells, dose response, cytotoxicity control for BCR NF-kB inhibitor project, luminescence, B-cell screen hits (AID 489021).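 Further: HEK-293T cells carrying an NF-kB luciferase reporter; cells exposed to compound for about 14 hours before viability readout.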 The format is functional, cell-based.
In experiment [13] the target is T1, Replicative DNA helicase DnaB (Mycobacterium tuberculosis, UniProt P9WMR3).
T1 sequence (P9WMR3 whole entry): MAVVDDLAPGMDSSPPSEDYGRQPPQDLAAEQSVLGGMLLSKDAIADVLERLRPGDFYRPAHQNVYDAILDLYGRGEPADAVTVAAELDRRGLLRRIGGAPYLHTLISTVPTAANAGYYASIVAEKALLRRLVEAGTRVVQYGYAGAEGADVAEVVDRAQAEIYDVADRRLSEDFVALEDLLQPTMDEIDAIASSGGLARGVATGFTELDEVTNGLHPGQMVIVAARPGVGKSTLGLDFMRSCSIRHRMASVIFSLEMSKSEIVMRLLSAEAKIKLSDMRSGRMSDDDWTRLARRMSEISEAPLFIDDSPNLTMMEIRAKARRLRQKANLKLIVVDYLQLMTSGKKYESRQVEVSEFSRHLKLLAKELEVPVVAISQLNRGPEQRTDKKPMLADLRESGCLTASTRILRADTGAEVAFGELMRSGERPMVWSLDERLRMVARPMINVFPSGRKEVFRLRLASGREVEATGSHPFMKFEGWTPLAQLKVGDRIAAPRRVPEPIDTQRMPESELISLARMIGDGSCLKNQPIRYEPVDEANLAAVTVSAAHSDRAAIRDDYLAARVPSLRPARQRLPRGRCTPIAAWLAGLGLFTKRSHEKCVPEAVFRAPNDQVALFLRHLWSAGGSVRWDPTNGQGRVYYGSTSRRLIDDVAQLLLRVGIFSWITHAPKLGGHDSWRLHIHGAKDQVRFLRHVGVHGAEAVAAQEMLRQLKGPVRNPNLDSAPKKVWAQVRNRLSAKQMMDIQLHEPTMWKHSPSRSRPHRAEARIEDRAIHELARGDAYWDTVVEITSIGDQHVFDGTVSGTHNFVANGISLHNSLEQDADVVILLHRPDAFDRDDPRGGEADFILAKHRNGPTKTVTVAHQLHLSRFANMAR
Kind of experiment: DnaB intein splicing inhibitors, dose response, biochemical, cell-free fluorescence (AID 449749). It counts as functional.

The target in another experiment is T2, Protein RecA (Mycobacterium tuberculosis, UniProt P9WHJ3).
T2 sequence (P9WHJ3 whole entry): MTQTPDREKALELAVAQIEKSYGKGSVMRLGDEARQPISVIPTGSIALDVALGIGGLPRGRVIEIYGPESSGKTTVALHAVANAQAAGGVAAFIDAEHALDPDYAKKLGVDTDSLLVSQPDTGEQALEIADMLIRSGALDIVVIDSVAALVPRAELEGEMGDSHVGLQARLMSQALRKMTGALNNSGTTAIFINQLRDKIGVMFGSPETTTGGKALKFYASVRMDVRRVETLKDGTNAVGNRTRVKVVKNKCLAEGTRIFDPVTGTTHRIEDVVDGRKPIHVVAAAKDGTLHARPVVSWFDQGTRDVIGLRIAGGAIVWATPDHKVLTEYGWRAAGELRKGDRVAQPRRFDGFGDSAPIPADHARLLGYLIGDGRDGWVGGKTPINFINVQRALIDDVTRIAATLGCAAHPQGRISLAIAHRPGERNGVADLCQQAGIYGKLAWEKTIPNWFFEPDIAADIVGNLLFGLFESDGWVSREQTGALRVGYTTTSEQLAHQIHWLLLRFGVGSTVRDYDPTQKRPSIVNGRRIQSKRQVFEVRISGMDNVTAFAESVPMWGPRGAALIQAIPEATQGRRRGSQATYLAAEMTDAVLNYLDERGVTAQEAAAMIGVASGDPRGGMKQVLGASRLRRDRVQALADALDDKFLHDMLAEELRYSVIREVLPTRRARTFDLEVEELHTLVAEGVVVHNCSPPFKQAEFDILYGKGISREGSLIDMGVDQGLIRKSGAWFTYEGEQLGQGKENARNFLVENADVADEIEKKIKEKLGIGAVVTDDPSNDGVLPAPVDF
Kind of experiment: Fluorescence Cell-Free Homogeneous Dose Retest to Identify Inhibitors of RecA-Intein Splicing Activity. [Related pubchem assays (depositor defined):AID2097, AID2223, AID489010, AID492950]. It counts as functional.

The next experiment addresses Protein Wnt-3a (Mus musculus, UniProt P27467). Kind of experiment: Wnt3a-driven reporter signaling inhibition, dose response, selectivity assay for Gli-SUFU antagonist project, Wnt-LIGHT cells, luminescence (AID 651570).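 Further: Wnt-LIGHT reporter cells stimulated with conditioned medium from Wnt3a-producing cells.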 It counts as functional. As to conditions: read-out: IC50_Mean.
Experiment [14] deals with Glyceraldehyde-3-phosphate dehydrogenase (Homo sapiens, UniProt P04406).
In experiment [15] the target is T3, Dual specificity protein phosphatase 6 (Rattus norvegicus, UniProt Q64346).
T3 sequence (Q64346 whole entry): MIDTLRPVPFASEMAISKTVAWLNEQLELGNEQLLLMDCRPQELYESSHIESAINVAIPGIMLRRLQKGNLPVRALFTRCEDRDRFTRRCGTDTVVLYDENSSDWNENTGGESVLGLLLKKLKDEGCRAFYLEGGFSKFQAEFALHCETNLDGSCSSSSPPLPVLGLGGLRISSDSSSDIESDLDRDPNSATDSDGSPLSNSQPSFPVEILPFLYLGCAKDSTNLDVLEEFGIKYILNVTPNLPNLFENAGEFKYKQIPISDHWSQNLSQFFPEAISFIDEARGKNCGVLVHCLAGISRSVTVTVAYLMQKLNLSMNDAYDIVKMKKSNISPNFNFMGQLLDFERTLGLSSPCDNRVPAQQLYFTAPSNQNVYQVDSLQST

In experiment [16] the target is T3, Dual specificity protein phosphatase 6. It counts as functional.
The target of experiment [17] is T4, Alkaline phosphatase, tissue-nonspecific isozyme (Homo sapiens, UniProt P05186).
T4 sequence (P05186 whole entry): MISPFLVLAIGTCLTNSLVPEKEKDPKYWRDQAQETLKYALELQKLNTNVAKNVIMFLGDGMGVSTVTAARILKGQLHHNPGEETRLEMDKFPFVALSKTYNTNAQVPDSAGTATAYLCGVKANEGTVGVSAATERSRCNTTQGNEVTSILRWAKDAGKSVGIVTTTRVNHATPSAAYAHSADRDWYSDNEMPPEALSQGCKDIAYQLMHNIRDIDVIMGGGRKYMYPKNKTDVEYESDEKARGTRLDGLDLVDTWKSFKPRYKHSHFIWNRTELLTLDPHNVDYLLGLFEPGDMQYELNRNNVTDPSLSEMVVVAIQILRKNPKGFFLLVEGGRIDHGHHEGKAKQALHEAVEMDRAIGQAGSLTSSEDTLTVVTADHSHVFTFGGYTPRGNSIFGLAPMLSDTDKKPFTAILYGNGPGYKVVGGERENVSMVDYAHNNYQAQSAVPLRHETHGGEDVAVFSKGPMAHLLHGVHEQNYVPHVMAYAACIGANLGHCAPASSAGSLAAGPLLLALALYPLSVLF
Kind of experiment: human TNAP enzyme inhibitors, SAR follow-up, biochemical, luminescent, dose response (AID 1056).

As a reminder, the EC50 is the concentration needed to bring the measured effect to its halfway point. What is called AC50 is the concentration at which the activity in the assay is half-maximal. One may read the CC50 as the concentration that lowers cell viability or growth by half.

Calls of active or inactive are those of the source. Where only a bound is given, the exact number is not on record here.

Chain of Intestinal-type alkaline phosphatase (P09923 whole entry): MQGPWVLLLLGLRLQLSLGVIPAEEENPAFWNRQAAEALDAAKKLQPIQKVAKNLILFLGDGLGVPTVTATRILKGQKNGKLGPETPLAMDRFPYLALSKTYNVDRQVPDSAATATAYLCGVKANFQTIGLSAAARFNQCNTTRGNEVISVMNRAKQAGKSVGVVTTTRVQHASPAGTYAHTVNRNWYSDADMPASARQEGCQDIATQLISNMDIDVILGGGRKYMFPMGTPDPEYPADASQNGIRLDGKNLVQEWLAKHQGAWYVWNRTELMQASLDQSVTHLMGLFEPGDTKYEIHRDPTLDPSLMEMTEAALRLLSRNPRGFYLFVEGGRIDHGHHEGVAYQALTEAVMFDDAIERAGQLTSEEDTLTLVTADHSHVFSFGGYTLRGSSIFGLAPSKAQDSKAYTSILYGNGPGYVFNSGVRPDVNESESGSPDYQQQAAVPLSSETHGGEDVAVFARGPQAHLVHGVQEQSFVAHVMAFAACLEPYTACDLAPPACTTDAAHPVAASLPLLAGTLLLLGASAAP
Chain of DNA dC->dU-editing enzyme APOBEC-3G (Q9HC16 whole entry): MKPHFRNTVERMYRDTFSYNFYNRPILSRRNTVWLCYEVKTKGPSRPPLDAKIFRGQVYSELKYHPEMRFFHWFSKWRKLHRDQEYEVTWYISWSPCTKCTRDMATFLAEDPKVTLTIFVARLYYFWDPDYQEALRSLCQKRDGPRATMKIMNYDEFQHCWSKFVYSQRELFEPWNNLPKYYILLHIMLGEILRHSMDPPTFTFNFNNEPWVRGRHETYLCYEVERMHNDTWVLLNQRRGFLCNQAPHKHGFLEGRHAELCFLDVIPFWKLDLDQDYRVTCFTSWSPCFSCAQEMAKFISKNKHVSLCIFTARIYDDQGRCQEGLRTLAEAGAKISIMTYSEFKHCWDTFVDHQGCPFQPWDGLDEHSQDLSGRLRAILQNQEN
Chain of Voltage-dependent T-type calcium channel subunit alpha-1H (O95180 whole entry): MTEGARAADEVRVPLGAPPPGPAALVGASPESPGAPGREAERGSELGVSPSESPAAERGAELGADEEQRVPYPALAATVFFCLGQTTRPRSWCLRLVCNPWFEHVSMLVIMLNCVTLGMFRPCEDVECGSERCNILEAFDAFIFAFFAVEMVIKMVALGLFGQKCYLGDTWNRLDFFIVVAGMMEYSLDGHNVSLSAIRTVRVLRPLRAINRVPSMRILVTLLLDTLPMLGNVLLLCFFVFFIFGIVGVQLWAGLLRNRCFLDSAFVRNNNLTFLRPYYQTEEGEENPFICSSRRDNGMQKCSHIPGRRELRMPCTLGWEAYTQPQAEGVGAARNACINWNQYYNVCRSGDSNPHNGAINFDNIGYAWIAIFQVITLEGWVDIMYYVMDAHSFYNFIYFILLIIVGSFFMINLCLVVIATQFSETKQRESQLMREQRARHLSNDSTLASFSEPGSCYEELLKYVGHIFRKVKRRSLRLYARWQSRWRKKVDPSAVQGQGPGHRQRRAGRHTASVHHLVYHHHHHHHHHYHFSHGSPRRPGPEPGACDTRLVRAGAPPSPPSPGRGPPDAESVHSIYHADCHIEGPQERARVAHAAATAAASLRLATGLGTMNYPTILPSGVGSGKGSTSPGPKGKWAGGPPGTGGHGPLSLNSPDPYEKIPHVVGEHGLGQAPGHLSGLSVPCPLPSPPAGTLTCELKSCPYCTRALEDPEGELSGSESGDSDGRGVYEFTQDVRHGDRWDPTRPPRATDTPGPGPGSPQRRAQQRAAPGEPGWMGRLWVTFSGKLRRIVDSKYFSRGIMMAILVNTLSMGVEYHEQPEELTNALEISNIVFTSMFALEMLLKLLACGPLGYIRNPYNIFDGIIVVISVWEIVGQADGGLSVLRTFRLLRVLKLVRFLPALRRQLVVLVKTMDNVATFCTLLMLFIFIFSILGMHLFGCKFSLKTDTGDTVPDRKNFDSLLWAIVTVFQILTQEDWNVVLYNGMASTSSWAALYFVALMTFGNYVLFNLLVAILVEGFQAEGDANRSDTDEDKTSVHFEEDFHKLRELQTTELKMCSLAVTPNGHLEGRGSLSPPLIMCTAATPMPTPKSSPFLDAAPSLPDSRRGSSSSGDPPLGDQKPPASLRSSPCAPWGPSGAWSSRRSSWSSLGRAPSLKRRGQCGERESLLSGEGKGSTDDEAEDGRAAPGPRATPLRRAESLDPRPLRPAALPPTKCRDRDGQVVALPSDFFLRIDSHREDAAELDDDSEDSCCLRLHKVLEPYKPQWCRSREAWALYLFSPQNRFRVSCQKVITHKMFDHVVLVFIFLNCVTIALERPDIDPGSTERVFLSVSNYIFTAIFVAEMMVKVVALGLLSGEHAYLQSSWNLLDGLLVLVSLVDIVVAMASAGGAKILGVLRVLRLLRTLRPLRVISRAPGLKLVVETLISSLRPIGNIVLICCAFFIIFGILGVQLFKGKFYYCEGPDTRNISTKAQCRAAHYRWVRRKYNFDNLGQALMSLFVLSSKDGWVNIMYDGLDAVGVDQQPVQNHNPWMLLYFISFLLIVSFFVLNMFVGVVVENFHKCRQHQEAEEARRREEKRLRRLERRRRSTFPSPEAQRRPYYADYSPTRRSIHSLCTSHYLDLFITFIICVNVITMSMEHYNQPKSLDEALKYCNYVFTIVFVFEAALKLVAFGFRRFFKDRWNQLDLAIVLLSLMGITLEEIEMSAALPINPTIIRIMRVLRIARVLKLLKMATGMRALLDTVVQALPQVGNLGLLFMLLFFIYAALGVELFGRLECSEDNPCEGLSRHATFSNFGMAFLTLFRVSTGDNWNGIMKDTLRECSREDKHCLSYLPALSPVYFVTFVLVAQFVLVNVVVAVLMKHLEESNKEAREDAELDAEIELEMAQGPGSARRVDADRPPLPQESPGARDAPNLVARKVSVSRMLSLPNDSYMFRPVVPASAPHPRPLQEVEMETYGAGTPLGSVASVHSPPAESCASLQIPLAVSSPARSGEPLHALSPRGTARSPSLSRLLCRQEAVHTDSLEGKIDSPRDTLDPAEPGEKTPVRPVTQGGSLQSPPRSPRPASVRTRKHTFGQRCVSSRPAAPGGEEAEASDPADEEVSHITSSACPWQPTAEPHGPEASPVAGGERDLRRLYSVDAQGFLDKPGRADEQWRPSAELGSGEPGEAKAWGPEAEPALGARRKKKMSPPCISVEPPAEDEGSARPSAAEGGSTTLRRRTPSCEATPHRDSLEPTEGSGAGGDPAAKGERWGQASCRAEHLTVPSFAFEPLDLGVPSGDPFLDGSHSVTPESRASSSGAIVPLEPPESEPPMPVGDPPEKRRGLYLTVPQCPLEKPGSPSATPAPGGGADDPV
Chain of DNA dC->dU-editing enzyme APOBEC-3A (P31941 whole entry): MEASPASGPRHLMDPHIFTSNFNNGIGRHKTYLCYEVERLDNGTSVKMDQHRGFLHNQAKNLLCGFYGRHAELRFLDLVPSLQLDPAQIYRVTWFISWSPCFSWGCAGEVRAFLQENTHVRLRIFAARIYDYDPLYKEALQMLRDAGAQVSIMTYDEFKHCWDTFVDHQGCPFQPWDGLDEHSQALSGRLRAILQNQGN
Chain of Glyceraldehyde-3-phosphate dehydrogenase (P04406 whole entry): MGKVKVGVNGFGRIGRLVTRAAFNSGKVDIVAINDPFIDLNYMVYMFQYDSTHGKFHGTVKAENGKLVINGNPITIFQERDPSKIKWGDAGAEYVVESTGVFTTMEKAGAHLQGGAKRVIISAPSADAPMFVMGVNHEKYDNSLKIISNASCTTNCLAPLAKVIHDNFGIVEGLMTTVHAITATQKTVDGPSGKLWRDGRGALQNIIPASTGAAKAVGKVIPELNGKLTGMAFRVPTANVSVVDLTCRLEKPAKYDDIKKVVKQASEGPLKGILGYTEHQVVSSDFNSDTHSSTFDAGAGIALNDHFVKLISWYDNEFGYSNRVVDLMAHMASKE
Chain of Large T antigen (P03070 whole entry): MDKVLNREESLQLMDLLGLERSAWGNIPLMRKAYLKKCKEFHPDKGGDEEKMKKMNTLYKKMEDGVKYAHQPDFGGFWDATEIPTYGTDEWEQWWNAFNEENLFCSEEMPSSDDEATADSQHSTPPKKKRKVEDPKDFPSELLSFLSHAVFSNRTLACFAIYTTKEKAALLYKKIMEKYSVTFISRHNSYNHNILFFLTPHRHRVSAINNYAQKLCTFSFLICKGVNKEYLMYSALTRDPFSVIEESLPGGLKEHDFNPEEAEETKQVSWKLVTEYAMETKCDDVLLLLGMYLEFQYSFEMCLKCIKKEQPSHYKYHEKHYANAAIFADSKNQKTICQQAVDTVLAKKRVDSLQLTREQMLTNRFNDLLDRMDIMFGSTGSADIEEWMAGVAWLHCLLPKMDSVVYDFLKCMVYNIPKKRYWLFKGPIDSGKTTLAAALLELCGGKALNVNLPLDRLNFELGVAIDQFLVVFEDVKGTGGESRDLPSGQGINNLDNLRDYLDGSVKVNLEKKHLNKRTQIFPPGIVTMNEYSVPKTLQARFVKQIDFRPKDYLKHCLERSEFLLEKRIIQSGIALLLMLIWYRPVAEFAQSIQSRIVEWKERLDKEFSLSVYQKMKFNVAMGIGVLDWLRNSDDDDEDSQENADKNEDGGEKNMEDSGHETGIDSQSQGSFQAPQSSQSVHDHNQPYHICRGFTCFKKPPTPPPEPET
Chain of Protein Wnt-3a (P27467 whole entry): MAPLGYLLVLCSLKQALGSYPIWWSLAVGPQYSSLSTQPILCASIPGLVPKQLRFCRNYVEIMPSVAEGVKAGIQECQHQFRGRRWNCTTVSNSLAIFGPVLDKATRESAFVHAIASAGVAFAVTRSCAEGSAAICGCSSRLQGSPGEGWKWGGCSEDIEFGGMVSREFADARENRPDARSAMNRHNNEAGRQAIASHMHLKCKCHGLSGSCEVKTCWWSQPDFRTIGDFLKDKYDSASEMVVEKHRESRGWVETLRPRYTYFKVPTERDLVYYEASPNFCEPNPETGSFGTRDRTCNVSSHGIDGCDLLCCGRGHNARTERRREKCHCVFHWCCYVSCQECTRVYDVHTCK

As for `O=C(Cc1ncc(C(F)(F)F)cc1Cl)Nc1cccc(Br)c1`, the EC50 in experiment [1] is 4.24 µM (active). Also, the AC50 at Cytochrome P450 3A4 is 14.1 µM (inconclusive).
Regarding `CCSS(=O)(=O)c1cccc2cccnc12`, the IC50 is > 100 µM (active) on Large T antigen, > 100 µM (inactive) in [2] and 12.7 µM (active) in [3].
On to `COc1cc(Cl)ccc1OCc1cc(C(=O)N2CCCCCCC2)no1`, for which, in experiment [4], the IC50 is > 100 µM (inactive).
Consider `O=C(c1cnn2c(C(F)(F)F)cc(-c3cccs3)nc12)N1CCN(C(c2ccccc2)c2ccccc2)CC1`, for which the CC50 in experiment [5] is > 40 µM (active). In experiment [1], the EC50 is 6.75 µM (active).
`COc1ccc(C(C(=O)NC2CCCCC2)N(C(=O)CCl)c2ccc(Cl)cc2)cc1` (configuration not stated): the EC50 in the experiment with BJ [6] was 0.152 µM (active); in the experiment on BJ [7], 2.51 µM (active); in experiment [8] it was 0.166 µM (active); in experiment [9], 1.23 µM (active); with BJ [10], 4.11 µM (inconclusive); in experiment [11], 0.681 µM (active). For the same compound, the EC50 at Protein RecA was 0.236 µM (active). In addition, the IC50 is > 80 µM (inactive) in experiment [12] and 3.16 µM (active) on Protein Wnt-3a. In addition, the AC50 in experiment [13] was 0.774 µM (active).
As to `COC(=O)c1cc(C#N)c(Oc2ccccc2OC)nc1C`, in [4], the IC50 is > 100 µM (inactive).
Take `CCOc1ccc(NC(=O)CSc2nncn2C)cc1`: in [4], the IC50 is > 100 µM (inactive).
As for `O=S(=O)(O)c1ccc2cc(/N=N/c3cc(S(=O)(=O)O)c4cccnc4c3O)ccc2c1`, the IC50 was > 100 µM (not active) in experiment [14], 5.1 µM (active) in experiment [15] and 4.19 µM (active) in [16].
Turning to `COC(=O)CSc1nnc(S)s1`, the IC50 is > 100 µM (inactive) in [2] and 17 µM (active) in [3].
For the compound `CCCCc1ccc(S(=O)(=O)Nc2cnc3ccccc3c2)cc1`, the values for the IC50 in experiment [14] and in experiment [17] were > 100 µM (not active) and > 100 µM (inactive), respectively.
